{"source": "patent US7442501B2", "about": "“SQV nucleic acids and polypeptides” (Massachusetts Institute of Technology, priority 2002, dated 2008)", "key": {"MBP-SQV-1": {"test_system": "MBP-SQV-1", "test": "UDP-glucuronic acid decarboxylase assay (HPLC-MS)", "assay_type": "biochemical, C. elegans", "conditions": "in the presence of NAD+ cofactor", "protocol": "This enzymatic reaction mixture was analyzed using an HPLC coupled to a mass spectrometer. Ion phase reverse polarity HPLC separated the nucleotide sugars and […] into three peaks of elution as detected by UV (FIG. 3A). These peaks were determined by mass spectrometry to be the substrate UDP-glucuronic acid, the product UDP-xylose, and the cofactor NAD^+. Negative polarity mass spectra identified the masses of the most abundant compounds in the reaction sample as 579 and 535 (FIG. 3B). These masses corresponded to the molecular masses of UDP-glucuronic acid (580) and UDP-xylose (536). The slight difference in molecular mass (579 versus 580 and 535 versus 536) was due to the negative ionization by the mass spectrometer, which removed one hydrogen atom from each compound. The presence of isotopic masses of 536 and 537 corresponded to subpopulations of UDP-xylose containing heavy isotopes such as ^13C.\nStandard molecular biology techniques were used (Sambrook et al., Molecular Cloning: A Laboratory Manual. Plainview, N.Y., Cold Spring Harbor Laboratory Pess, 1989) to obtain a construct that encoded a SQV-1-maltose-binding protein (MBP) fusion protein. The sqv-1 coding sequence was cloned into the MBP encoding vector, pMAL-c2. The oligonucleotides 5′-[…]-3′ (SEQ ID NO:32) and 5′-[…]-3′ (SEQ ID NO:33) were used to PCR-amplify the sqv-1 ORF. […]"}, "SQV-4": {"target": "T1, SQV-4 (Caenorhabditis elegans, UniProt Q19905, T2A)", "T1 construct": "were used for PCR-amplification of the sqv-4 ORF, and the resulting product was digested with NcoI and XhoI and cloned into pET21d; made in house; host or cells: E. coli BL21 pLysS, pET21d; soluble fraction used without purification", "T1 sequence (Q19905 whole entry T2A)": "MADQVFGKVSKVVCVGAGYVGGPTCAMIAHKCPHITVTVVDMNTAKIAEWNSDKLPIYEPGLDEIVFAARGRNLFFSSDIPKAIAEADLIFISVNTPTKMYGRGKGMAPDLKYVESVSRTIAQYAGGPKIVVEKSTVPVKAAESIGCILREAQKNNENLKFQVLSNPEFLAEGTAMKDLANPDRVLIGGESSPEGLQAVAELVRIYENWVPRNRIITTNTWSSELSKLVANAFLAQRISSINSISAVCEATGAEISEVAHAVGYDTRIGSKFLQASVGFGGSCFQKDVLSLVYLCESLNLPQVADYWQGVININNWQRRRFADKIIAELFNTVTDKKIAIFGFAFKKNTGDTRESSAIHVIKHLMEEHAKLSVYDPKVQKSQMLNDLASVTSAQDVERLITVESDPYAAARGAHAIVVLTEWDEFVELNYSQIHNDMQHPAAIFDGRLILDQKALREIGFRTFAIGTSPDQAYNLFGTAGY", "assay_type": "biochemical, C. elegans", "conditions": "UDP-glucose replaced; 100 μM NAD+ and 250 μM nucleotide sugar", "from_the_text": "The sqv-4 coding sequences corresponding to the wild-type, n2827, and n2840 alleles were cloned into the pET21d E. coli expression vector and transformed into BL21 pLysS. The oligonucleotides 5′-[…]-3′ (SEQ ID NO:53) and 5′-[…]-3′ (SEQ ID NO:54) were used to generate R353H n2827 and T4101 n2840 mutations, respectively, by site-directed mutagenesis. The oligonucleotides 5′-[…]-3′ (SEQ ID NO:55) and 5′-[…]-3′ (SEQ ID NO:56) were used for PCR-amplification of the sqv-4 ORF, and the resulting product was digested with NcoI and XhoI and cloned into pET21d. All three proteins have a threonine to alanine mutation in the second amino acid because of the addition of an NcoI site at the 5′ end. SQV-4 expression was induced by incubation with 1 mM IPTG for three to four hours at 37° C. E. coli were pelleted and resuspended in 50 mM Tris-HCl pH 7.5, 1 mM DTT, 1 mM EDTA, 1 mM PMSF, 2 μg/ml pepstatin A, and aprotinin and lysed using a French pressure cell. The soluble fraction was separated from the insoluble inclusion bodies by centrifugation at 12,000 g for 20 minutes.\nAll assays were performed at room temperature (20 to 22° C.) in 50 mM Tris-HCl, 2 mM dithiothrietol (DTT), pH 8.7. The initial velocity of the reaction was determined from time points during the first 60 seconds after addition of the SQV-4 extract."}}}
{"compound": "O=C(O)[C@H]1O[C@H](OP(=O)(O)OP(=O)(O)OC[C@H]2O[C@@H](n3ccc(=O)[nH]c3=O)[C@H](O)[C@@H]2O)[C@H](O)[C@@H](O)[C@@H]1O", "note": "[UDP-glucuronic acid]", "values": [{"measurement": "conversion by MBP-SQV-1 fusion protein", "setting": "MBP-SQV-1", "result": "generated UDP-xylose from UDP-glucuronic acid"}, {"measurement": "NAD+ reduction", "setting": "SQV-4", "result": "undetectable"}]}
